According to paper PMC11249637, “Interaction of the Atypical Tetracyclines Chelocardin and Amidochelocardin with Renal Drug Transporters” (ACS Pharmacology & Translational Science, 2024):

How the values were obtained:
mOat2 = molecular target: T1, mOat2 (Mus musculus, UniProt Q91WU2); assay: Two-point inhibition of mOat2-mediated cGMP uptake in transfected HEK293 cells; assay type: in vitro ADME; conditions: cGMP 10 μM, 5 min, read-out: inhibitory effect on mOat2
T1 construct: expressed in transfected cells; host or cells: HEK293
T1 sequence (Q91WU2 1-540): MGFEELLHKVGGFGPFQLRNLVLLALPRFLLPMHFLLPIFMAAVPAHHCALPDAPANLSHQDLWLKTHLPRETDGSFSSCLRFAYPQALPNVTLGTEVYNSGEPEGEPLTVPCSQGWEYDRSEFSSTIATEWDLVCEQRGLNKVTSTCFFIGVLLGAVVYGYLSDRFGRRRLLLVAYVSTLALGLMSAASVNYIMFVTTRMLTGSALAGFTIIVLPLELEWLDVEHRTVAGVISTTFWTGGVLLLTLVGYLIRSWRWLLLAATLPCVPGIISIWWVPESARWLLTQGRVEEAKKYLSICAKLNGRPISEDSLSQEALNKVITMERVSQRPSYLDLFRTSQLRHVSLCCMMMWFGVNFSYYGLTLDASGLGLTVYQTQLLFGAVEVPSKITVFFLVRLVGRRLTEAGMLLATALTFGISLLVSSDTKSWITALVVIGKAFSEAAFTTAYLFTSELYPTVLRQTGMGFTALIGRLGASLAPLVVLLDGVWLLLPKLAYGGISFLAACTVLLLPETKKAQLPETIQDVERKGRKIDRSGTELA
Method: (§1) Well-characterized mOct1-, mOct2-, mOat1-, mOat2-, mOat3-, mMate1-, hOAT1-, hOAT3-, hOAT4-, hMRP2-, mMdr1a- and mMdr1b-transfected HEK293 cells and the respective vector-transfected control HEK293 cells were used.[42],[51],[52] All HEK293 cells (transporter-transfected and vector-transfected) were cultured in DMEM (Sigma, high glucose, 10% FBS, 1% penicillin (10,000 Units/mL)/streptomycin (10 mg/mL)) at 37°C under 5% CO2 in humidified atmosphere. The cells were routinely checked for the absence of mycoplasma infection. For the preparation of HEK293 cell monolayers, 24-well plates were pretreated with a poly-D-lysine hydrobromide solution (0.1 mg/mL). […]
(§2) For the uptake assay, the growth medium was aspirated, and each well was rinsed three times with 0.5 mL of incubation buffer (HBSS supplemented with 20 mM HEPES, pH 7.4) and incubated for 20 min at 37 °C. […] Cells were solubilized with 0.6 mL of 1N NaOH overnight and transferred into scintillation vials. ^3H and ^14C contents were measured after the addition of 2.5 mL of scintillator in a liquid scintillation counter.
(§3) The cellular protein amount was determined in parallel for each cell line (vector- and transporter-transfected) from six wells in a different 24-well reference plate using the Bradford method. […]
(§4) The inhibitory effect (I(%)) was calculated according to the formula: [drawing 5] […]

hOAT3 = molecular target: T2, hOAT3 (Homo sapiens, UniProt Q8TCC7); assay: Two-point inhibition of hOAT3-mediated ES uptake in transfected HEK293 cells; assay type: in vitro ADME; conditions: ES 1 μM, 1 min
T2 construct: expressed in transfected cells; host or cells: HEK293
T2 sequence (Q8TCC7 1-542): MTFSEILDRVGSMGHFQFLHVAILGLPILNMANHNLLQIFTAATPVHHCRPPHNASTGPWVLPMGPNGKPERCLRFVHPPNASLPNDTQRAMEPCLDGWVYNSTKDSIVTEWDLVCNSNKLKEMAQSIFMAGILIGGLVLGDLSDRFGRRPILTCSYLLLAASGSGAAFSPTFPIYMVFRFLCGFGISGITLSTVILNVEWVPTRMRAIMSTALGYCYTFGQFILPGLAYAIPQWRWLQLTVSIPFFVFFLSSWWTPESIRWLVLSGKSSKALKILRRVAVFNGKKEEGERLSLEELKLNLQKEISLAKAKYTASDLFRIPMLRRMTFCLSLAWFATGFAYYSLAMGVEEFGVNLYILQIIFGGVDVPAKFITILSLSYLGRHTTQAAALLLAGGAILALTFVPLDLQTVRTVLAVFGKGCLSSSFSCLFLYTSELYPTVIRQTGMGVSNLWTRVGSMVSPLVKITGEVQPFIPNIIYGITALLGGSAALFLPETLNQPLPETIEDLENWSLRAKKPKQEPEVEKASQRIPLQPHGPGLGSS
Method: as §1, §2, §3, §4

Structure (SMILES): Cc1ccc2c(C)c3c(c(O)c2c1O)C(=O)[C@@]1(O)C(=O)C(C(N)=O)=C(O)[C@@H](N)[C@H]1C3 [CDCHD, amidochelocardin]
- inhibition at 10 µM (mOat2): ~100%
- inhibition of hOAT3 (in words) (hOAT3; 1 and 10 μM): only marginally

Structure (SMILES): CC(=O)C1=C(O)[C@@H](N)[C@H]2Cc3c(c(O)c4c(O)c(C)ccc4c3C)C(=O)[C@@]2(O)C1=O [CHD, chelocardin]
- inhibition at 10 µM (mOat2): ~100%
- inhibition at 10 µM (hOAT3; HEK293, at 10 μM, read-out: inhibitory effect on hOAT3): ~75%
